# Reference: PubChem BioAssay (NCI)
#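 Method: 48-hour compound exposure of cells in 96-well plates, five concentrations, linear interpolation of endpoints. TGI denotes the concentration required for complete inhibition of growth.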
# Experiments:
# Test in all cases: NCI anticancer screen, dose series, 48 h
# SK-MEL-2 melanoma = test system: SK-MEL-2 melanoma
# SK-OV-3 ovarian = test system: SK-OV-3 ovarian
# MDA-N = test system: MDA-N
# OVCAR-8 ovarian = test system: OVCAR-8 ovarian
# CCRF-CEM leukemia = test system: CCRF-CEM leukemia
# OVCAR-5 ovarian = test system: OVCAR-5 ovarian
# ACHN renal = test system: ACHN renal
# K-562 leukemia = test system: K-562 leukemia
# IGROV1 ovarian = test system: IGROV1 ovarian
# HT29 colon = test system: HT29 colon
# SF-539 CNS = test system: SF-539 CNS
# U251 CNS = test system: U251 CNS
# UACC-62 melanoma = test system: UACC-62 melanoma
# HCT-116 colon = test system: HCT-116 colon
# TK-10 renal = test system: TK-10 renal
# EKVX NSCLC = test system: EKVX NSCLC
# MCF7 breast = test system: MCF7 breast
# SK-MEL-5 melanoma = test system: SK-MEL-5 melanoma
# NCI-H23 lung = test system: NCI-H23 lung
# M14 melanoma = test system: M14 melanoma
# UACC-257 melanoma = test system: UACC-257 melanoma
# DU-145 prostate = test system: DU-145 prostate
# CAKI-1 renal = test system: CAKI-1 renal
# SW-620 colon = test system: SW-620 colon
# KM12 colon = test system: KM12 colon
# HCT-15 colon = test system: HCT-15 colon
# MOLT-4 leukemia = test system: MOLT-4 leukemia
# A498 renal = test system: A498 renal
# T-47D breast = test system: T-47D breast
# NCI-H226 lung = test system: NCI-H226 lung
# HS 578T breast = test system: HS 578T breast
# 786-0 renal = test system: 786-0 renal
# NCI/ADR-RES ovarian = test system: NCI/ADR-RES ovarian
# SR leukemia = test system: SR leukemia
# SK-MEL-28 melanoma = test system: SK-MEL-28 melanoma
# PC-3 prostate = test system: PC-3 prostate
# MDA-MB-435 = test system: MDA-MB-435
# RXF 393 renal = test system: RXF 393 renal
# MALME-3M melanoma = test system: MALME-3M melanoma
# NCI-H460 lung = test system: NCI-H460 lung
# SF-295 CNS = test system: SF-295 CNS
# SF-268 CNS = test system: SF-268 CNS
# OVCAR-3 ovarian = test system: OVCAR-3 ovarian
# MDA-MB-231 breast = test system: MDA-MB-231 breast
# SN12C renal = test system: SN12C renal
# LOX IMVI melanoma = test system: LOX IMVI melanoma
# BT-549 breast = test system: BT-549 breast
# RPMI-8226 leukemia = test system: RPMI-8226 leukemia
# HL-60(TB) leukemia = test system: HL-60(TB) leukemia
# UO-31 renal = test system: UO-31 renal
# COLO 205 colon = test system: COLO 205 colon
# SNB-19 CNS = test system: SNB-19 CNS
# A549 NSCLC = test system: A549 NSCLC
# NCI-H522 lung = test system: NCI-H522 lung
# OVCAR-4 ovarian = test system: OVCAR-4 ovarian
# SNB-75 CNS = test system: SNB-75 CNS
# HOP-62 NSCLC = test system: HOP-62 NSCLC
# HOP-92 NSCLC = test system: HOP-92 NSCLC
compound,measurement,setting,value
O=C(c1cccs1)N(C(=S)OCc1ccccn1)c1ccccc1,TGI,SK-MEL-2 melanoma,> 100 µM
same,TGI,SK-OV-3 ovarian,> 100 µM
same,TGI,MDA-N,> 100 µM
same,TGI,OVCAR-8 ovarian,> 100 µM
same,TGI,CCRF-CEM leukemia,> 100 µM
same,TGI,OVCAR-5 ovarian,> 100 µM
same,TGI,ACHN renal,> 100 µM
same,TGI,K-562 leukemia,> 100 µM
same,TGI,IGROV1 ovarian,> 100 µM
same,TGI,HT29 colon,> 100 µM
same,TGI,SF-539 CNS,> 100 µM
same,TGI,U251 CNS,> 100 µM
same,TGI,UACC-62 melanoma,> 100 µM
same,TGI,HCT-116 colon,> 100 µM
same,TGI,TK-10 renal,> 100 µM
same,TGI,EKVX NSCLC,70 µM
same,TGI,MCF7 breast,> 100 µM
same,TGI,SK-MEL-5 melanoma,> 100 µM
same,TGI,NCI-H23 lung,> 100 µM
same,TGI,M14 melanoma,> 100 µM
same,TGI,UACC-257 melanoma,> 100 µM
same,TGI,DU-145 prostate,> 100 µM
same,TGI,CAKI-1 renal,> 100 µM
same,TGI,SW-620 colon,> 100 µM
same,TGI,KM12 colon,> 100 µM
same,TGI,HCT-15 colon,> 100 µM
same,TGI,MOLT-4 leukemia,> 100 µM
same,TGI,A498 renal,> 100 µM
same,TGI,T-47D breast,> 100 µM
same,TGI,NCI-H226 lung,> 100 µM
same,TGI,HS 578T breast,> 100 µM
same,TGI,786-0 renal,> 100 µM
same,TGI,NCI/ADR-RES ovarian,> 100 µM
same,TGI,SR leukemia,> 100 µM
same,TGI,SK-MEL-28 melanoma,> 100 µM
same,TGI,PC-3 prostate,> 100 µM
same,TGI,MDA-MB-435,> 100 µM
same,TGI,RXF 393 renal,> 100 µM
same,TGI,MALME-3M melanoma,44 µM
same,TGI,NCI-H460 lung,> 100 µM
same,TGI,SF-295 CNS,> 100 µM
same,TGI,SF-268 CNS,> 100 µM
same,TGI,OVCAR-3 ovarian,> 100 µM
same,TGI,MDA-MB-231 breast,> 100 µM
same,TGI,SN12C renal,> 100 µM
same,TGI,LOX IMVI melanoma,> 100 µM
same,TGI,BT-549 breast,> 100 µM
same,TGI,RPMI-8226 leukemia,> 100 µM
same,TGI,HL-60(TB) leukemia,> 100 µM
same,TGI,UO-31 renal,96.7 µM
same,TGI,COLO 205 colon,> 100 µM
same,TGI,SNB-19 CNS,> 100 µM
COC(=O)C1=C(C(=O)OC)C2(/N=C(\Nc3ccccc3)c3ccccc3)N(c3ccc(OC)cc3)CC(c3ccccc3)N2O1 (stereo not drawn),TGI,SK-MEL-2 melanoma,> 100 µM
same,TGI,A549 NSCLC,> 100 µM
same,TGI,SK-OV-3 ovarian,> 100 µM
same,TGI,MDA-N,> 100 µM
same,TGI,OVCAR-8 ovarian,> 100 µM
same,TGI,CCRF-CEM leukemia,> 100 µM
same,TGI,NCI-H522 lung,> 100 µM
same,TGI,OVCAR-5 ovarian,> 100 µM
same,TGI,ACHN renal,> 100 µM
same,TGI,K-562 leukemia,> 100 µM
same,TGI,IGROV1 ovarian,> 100 µM
same,TGI,HT29 colon,> 100 µM
same,TGI,SF-539 CNS,> 100 µM
same,TGI,U251 CNS,> 100 µM
same,TGI,UACC-62 melanoma,> 100 µM
same,TGI,HCT-116 colon,> 100 µM
same,TGI,TK-10 renal,> 100 µM
same,TGI,EKVX NSCLC,> 100 µM
same,TGI,MCF7 breast,> 100 µM
same,TGI,SK-MEL-5 melanoma,> 100 µM
same,TGI,NCI-H23 lung,> 100 µM
same,TGI,M14 melanoma,> 100 µM
same,TGI,UACC-257 melanoma,> 100 µM
same,TGI,DU-145 prostate,> 100 µM
same,TGI,CAKI-1 renal,> 100 µM
same,TGI,SW-620 colon,> 100 µM
same,TGI,KM12 colon,> 100 µM
same,TGI,HCT-15 colon,> 100 µM
same,TGI,MOLT-4 leukemia,> 100 µM
same,TGI,OVCAR-4 ovarian,> 100 µM
same,TGI,A498 renal,> 100 µM
same,TGI,T-47D breast,> 100 µM
same,TGI,HS 578T breast,> 100 µM
same,TGI,786-0 renal,> 100 µM
same,TGI,NCI/ADR-RES ovarian,> 100 µM
same,TGI,SNB-75 CNS,96.7 µM
same,TGI,SR leukemia,> 100 µM
same,TGI,SK-MEL-28 melanoma,> 100 µM
same,TGI,PC-3 prostate,> 100 µM
same,TGI,MDA-MB-435,> 100 µM
same,TGI,RXF 393 renal,> 100 µM
same,TGI,MALME-3M melanoma,> 100 µM
same,TGI,NCI-H460 lung,> 100 µM
same,TGI,SF-295 CNS,> 100 µM
same,TGI,HOP-62 NSCLC,> 100 µM
same,TGI,SF-268 CNS,> 100 µM
same,TGI,OVCAR-3 ovarian,> 100 µM
same,TGI,HOP-92 NSCLC,> 100 µM
same,TGI,MDA-MB-231 breast,> 100 µM
same,TGI,SN12C renal,> 100 µM
same,TGI,LOX IMVI melanoma,> 100 µM
same,TGI,BT-549 breast,> 100 µM
same,TGI,HL-60(TB) leukemia,> 100 µM
same,TGI,UO-31 renal,> 100 µM
same,TGI,COLO 205 colon,> 100 µM
same,TGI,SNB-19 CNS,> 100 µM
